Source: patent publication US20200102295A1, “NITROCATECHOL DERIVATIVES AS COMT INHIBITORS” (BIAL - PORTELA & CA, S.A., priority 2005, published 2020)

Assays:
mouse liver COMT = molecular target: T1, mouse liver COMT (Mus musculus, UniProt O88587); assay: Mouse liver COMT activity after oral administration of test compounds; assay type: in vivo; conditions: 3 mg/kg oral, 3 h after administration
T1 construct: Aliquots of 0.5 ml of liver homogenates were preincubated; from tissue; host or cells: mouse liver homogenate (NMRI mice, dosed orally; ex vivo activity)
T1 sequence (O88587 1-265): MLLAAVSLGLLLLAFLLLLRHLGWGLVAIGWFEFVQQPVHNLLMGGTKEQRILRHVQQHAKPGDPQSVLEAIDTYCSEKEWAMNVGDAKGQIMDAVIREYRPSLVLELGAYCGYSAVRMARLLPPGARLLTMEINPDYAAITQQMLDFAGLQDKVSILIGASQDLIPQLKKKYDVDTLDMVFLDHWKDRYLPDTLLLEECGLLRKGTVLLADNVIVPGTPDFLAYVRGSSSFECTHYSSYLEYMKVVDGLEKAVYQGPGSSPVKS

rat liver COMT = molecular target: T2, rat liver COMT (Rattus norvegicus, UniProt P22734); assay: Rat liver COMT activity after oral administration of test compounds; assay type: in vivo; conditions: 3 mg/kg oral
T2 construct: the organs were immediately removed and homogenised in 5 mM phosphate buffer of pH 7.8; from tissue; host or cells: rat liver homogenate (Wistar rats, dosed orally; ex vivo activity)
T2 sequence (P22734 1-264): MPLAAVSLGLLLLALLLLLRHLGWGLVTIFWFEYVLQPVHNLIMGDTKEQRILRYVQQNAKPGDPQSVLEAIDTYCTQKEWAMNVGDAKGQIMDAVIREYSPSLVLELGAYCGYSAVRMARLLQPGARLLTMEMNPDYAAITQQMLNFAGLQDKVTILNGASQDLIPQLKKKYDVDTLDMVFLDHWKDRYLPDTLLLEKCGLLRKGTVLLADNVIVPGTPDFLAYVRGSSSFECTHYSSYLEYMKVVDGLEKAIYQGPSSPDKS

[1] = tested on: Neuro 2A mouse neuroblastoma cells; assay: Cell toxicity: Neuro 2A cell viability (calcein-AM); assay type: cell-based; conditions: Neuro 2A cells, 30 μM, 24 h exposure
[2] = tested on: plasma levels of L-DOPA and 3-O-methyl-L-DOPA (3-OMD); assay: Levels of L-DOPA and 3-O-methyl-L-DOPA in plasma of rats treated with L-DOPA plus benserazide; assay type: in vivo, rat; conditions: 3 mg/kg oral, 2 h after administration

Structure (SMILES): Cc1cc(C(F)(F)F)c(-c2noc(-c3cc(O)c(O)c([N+](=O)[O-])c3)n2)c[n+]1[O-] [Compound 30, 5-[3-(6-Methyl-1-oxy-4-trifluoromethyl-pyridin-3-yl)-[1,2,4]oxadiazol-5-yl]-3-nitro-benzene-1,2-diol]
- COMT activity (% of control) (mouse liver COMT): 8.8 % of control
- Rat Liver COMT activity (% control) (rat liver COMT; 1 h after administration): 6.3 % control
- Rat Liver COMT activity (% control) (rat liver COMT; 3 h after administration): 34.8 % control
- Rat Liver COMT activity (% control) (rat liver COMT; 6 h after administration): 41.2 % control
- Rat Liver COMT activity (% control) (rat liver COMT; 9 h after administration): 54.5 % control
- % of viable cells [1]: 81.8%
- L-DOPA % increase (plasma level, % control) ([2]; L-DOPA plus benserazide 1 h before plasma collection): 103.5%
- 3-OMD % reduction (plasma level, % control) ([2]; L-DOPA plus benserazide 1 h before plasma collection, given with minus sign): −75.0%
- L-Dopa/3-OMD ([2]; plasma ratio): 8.1
